According to PubChem BioAssay AID330 (DTP/NCI, 2004):
Where “and” joins values, the source holds several entries; their conditions need not be identical. Identical values can stand only once. Toxic doses and inconclusive results are not listed. Square brackets hold non-standard residues; d marks the D form. Peptide text beside a SMILES is read from it. * marks the point of attachment. Cbz = O=C(OCc1ccccc1)*; Nva = CCC[CH](N)C(=O)O

Tested on: P388 leukemia ip, CD2F1 mice, survival T/C
Assay: NCI In Vivo Anticancer Drug Screen. Data for tumor model P388 Leukemia (intraperitoneal) in CD2F1 (CDF1) mice
Details: endpoint: median survival time, higher = longer survival
Outline: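 Mice carrying the transplanted tumor received test compound or vehicle. Survival was recorded in each group, and the value is the treated-group measurement divided by that of the vehicle-treated control group.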

[1] = dose: 60.0 mg/kg/injection, schedule: Q01DX005 (ip), vehicle: saline with Tween-80
[2] = dose: 120.0 mg/kg/injection, schedule: Q01DX005 (ip), vehicle: saline with Tween-80
[3] = dose: 240.0 mg/kg/injection, schedule: Q01DX005 (ip), vehicle: saline with Tween-80
[4] = dose: 25.0 mg/kg/injection, schedule: Q01DX009 (ip), vehicle: saline with Tween-80
[5] = dose: 50.0 mg/kg/injection, schedule: Q01DX009 (ip), vehicle: saline with Tween-80
[6] = dose: 100.0 mg/kg/injection, schedule: Q01DX009 (ip), vehicle: saline with Tween-80
[7] = dose: 50.0 mg/kg/injection, schedule: Q01DX005 (ip), vehicle: Klucel (hydroxypropylcellulose) (HPC)
[8] = dose: 100.0 mg/kg/injection, schedule: Q01DX005 (ip), vehicle: Klucel (hydroxypropylcellulose) (HPC)
[9] = dose: 200.0 mg/kg/injection, schedule: Q01DX005 (ip), vehicle: Klucel (hydroxypropylcellulose) (HPC)
[10] = dose: 50.0 mg/kg/injection, schedule: Q01DX009 (ip), vehicle: Klucel (hydroxypropylcellulose) (HPC)
[11] = dose: 100.0 mg/kg/injection, schedule: Q01DX009 (ip), vehicle: Klucel (hydroxypropylcellulose) (HPC)
[12] = dose: 60.0 mg/kg/injection, schedule: Q01DX005 (ip), vehicle: Klucel (hydroxypropylcellulose) (HPC)
[13] = dose: 120.0 mg/kg/injection, schedule: Q01DX005 (ip), vehicle: Klucel (hydroxypropylcellulose) (HPC)
[14] = dose: 50.0 mg/kg/injection, schedule: Q01DX005 (ip), vehicle: saline with Tween-80
[15] = dose: 100.0 mg/kg/injection, schedule: Q01DX005 (ip), vehicle: saline with Tween-80
[16] = dose: 200.0 mg/kg/injection, schedule: Q01DX005 (ip), vehicle: saline with Tween-80

## O=C(C(=O)c1cccc(C(=O)C(=O)c2ccccc2)c1)c1ccccc1
[1]
  T/C: 104 % of control
[2]
  T/C: 96 % of control
[3]
  T/C: 92 % of control

## CCCN(CCC)CCCCO
dose: 50.0 mg/kg/injection, schedule: Q04DX003 (ip), vehicle: saline with Tween-80
  T/C: 195 % of control
dose: 100.0 mg/kg/injection, schedule: Q04DX003 (ip), vehicle: saline with Tween-80
  T/C: 100 % of control
dose: 200.0 mg/kg/injection, schedule: Q04DX003 (ip), vehicle: saline with Tween-80
  T/C: 100 % of control

## c1ccc(-c2nc(-c3ccccc3)c3ccccc3n2)cc1
[4]
  T/C: 104 % of control
[5]
  T/C: 114 % of control
[6]
  T/C: 114 % of control

## CC(=O)Nc1ccc2c(c1)nc(-c1ccccn1)n2CCc1ccccn1
dose: 25.0 mg/kg/injection, schedule: Q01DX005 (ip), vehicle: Klucel (hydroxypropylcellulose) (HPC)
  T/C: 103 % of control
[7]
  T/C: 102 % of control
[8]
  T/C: 102 % of control
[9]
  T/C: 102 % of control

## N#Cc1nnn(-c2ccc(Cl)cc2)c1N
[7]
  T/C: 99 % of control
[8]
  T/C: 97 % of control

## COc1cc[n+](CC(=O)c2c[nH]c3ccccc23)cc1
[10]
  T/C: 103 % of control
[11]
  T/C: 109 % of control

## COc1cc2nc3occc3c(OC)c2cc1OCC(O)C(C)(C)O (stereo not drawn)
dose: 12.5 mg/kg/injection, schedule: Q01DX005 (ip), vehicle: distilled water + Tween-80
  T/C: 91 % of control
dose: 25.0 mg/kg/injection, schedule: Q01DX005 (ip), vehicle: distilled water + Tween-80
  T/C: 98 % of control

## C[n+]1c(/C=C/c2ccc([N+](=O)[O-])cc2)ccc2ccccc21
dose: 3.3 mg/kg/injection, schedule: Q01DX009 (ip), vehicle: saline sonified
  T/C: 100 % of control
dose: 6.5 mg/kg/injection, schedule: Q01DX009 (ip), vehicle: saline sonified
  T/C: 111 % of control
dose: 12.5 mg/kg/injection, schedule: Q01DX009 (ip), vehicle: saline sonified
  T/C: 111 % of control

## CCOC(=O)N(C)CCc1cc(OC)c(OC)cc1/C=C\c1ccc(OC)c(OC)c1
dose: 12.5 mg/kg/injection, schedule: Q01DX001 (ip), vehicle: saline + alcohol
  T/C: 100 % of control
dose: 25.0 mg/kg/injection, schedule: Q01DX001 (ip), vehicle: saline + alcohol
  T/C: 98 % of control
dose: 50.0 mg/kg/injection, schedule: Q01DX001 (ip), vehicle: saline + alcohol
  T/C: 98 % of control

## COc1cc(OC)cc(C2OC3=C(Nc4ccccc4N3)C2=O)c1 (stereo not drawn)
[12]
  T/C: 93 % of control
[13]
  T/C: 89 % of control

## COC(=O)CCCCC1=CCC2C(=O)C=C(O)C2C1 (stereo not drawn)
[1]
  T/C: 87 % of control
[2]
  T/C: 106 % of control
[3]
  T/C: 116 % of control

## CCCCCCNC(N)=NCCCC(N)C(=O)O (stereo not drawn)
[7]
  T/C: 103 % of control
[8]
  T/C: 102 % of control
[9]
  T/C: 106 % of control

## COC12CCCC3(OCCO3)C1C(Cl)C2Cl (stereo not drawn)
[1]
  T/C: 98 % of control
[2]
  T/C: 88 % of control

## Cc1cc2c(cc1C)C(=O)c1c(C)ccc(C)c1C2=O
dose: 12.5 mg/kg/injection, schedule: Q01DX005 (ip), vehicle: saline with Tween-80
  T/C: 99 % of control
dose: 25.0 mg/kg/injection, schedule: Q01DX005 (ip), vehicle: saline with Tween-80
  T/C: 99 % of control
[14]
  T/C: 86 % of control and 89 % of control

## O=[N+]([O-])c1ccc2oc([N+](=O)[O-])cc2c1
[7]
  T/C: 101 % of control
[8]
  T/C: 100 % of control
[9]
  T/C: 101 % of control

## CCCCCCCCCCCCCCCCCC[N+]1(CC)CCSCC1
dose: 25.0 mg/kg/injection, schedule: Q01DX001 (ip), vehicle: saline with Tween-80
  T/C: 97 % of control
dose: 50.0 mg/kg/injection, schedule: Q01DX001 (ip), vehicle: saline with Tween-80
  T/C: 98 % of control
dose: 100.0 mg/kg/injection, schedule: Q01DX001 (ip), vehicle: saline with Tween-80
  T/C: 94 % of control
dose: 400.0 mg/kg/injection, schedule: Q01DX001 (ip), vehicle: saline with Tween-80
  T/C: 86 % of control

## CC(=O)OCC(OC(C)=O)C(OC(C)=O)C(OC(C)=O)C(C#N)OC(C)=O (stereo not drawn)
[6]
  T/C: 91 % of control
dose: 200.0 mg/kg/injection, schedule: Q01DX009 (ip), vehicle: saline with Tween-80
  T/C: 87 % of control
dose: 400.0 mg/kg/injection, schedule: Q01DX009 (ip), vehicle: saline with Tween-80
  T/C: 91 % of control
dose: 600.0 mg/kg/injection, schedule: Q01DX009 (ip), vehicle: saline with Tween-80
  T/C: 87 % of control

## CCOP(=O)(O)C1CCCC(C)[N-]1.CCOP(=O)(O)C1CCCC(C)[N-]1.[Cu+2] (stereo not drawn)
dose: 12.5 mg/kg/injection, schedule: Q04DX003 (ip), vehicle: Klucel (hydroxypropylcellulose) (HPC)
  T/C: 101 % of control
dose: 25.0 mg/kg/injection, schedule: Q04DX003 (ip), vehicle: Klucel (hydroxypropylcellulose) (HPC)
  T/C: 112 % of control

## C1=CC2OC1c1cc3c(cc12)[C@@H]1C=C[C@@H]3O1
[14]
  T/C: 96 % of control
[15]
  T/C: 105 % of control
[16]
  T/C: 91 % of control

## CCCCCOC(CN(C)C)C(Cl)(Cl)Cl (stereo not drawn)
[10]
  T/C: 100 % of control
[11]
  T/C: 100 % of control
dose: 200.0 mg/kg/injection, schedule: Q01DX009 (ip), vehicle: Klucel (hydroxypropylcellulose) (HPC)
  T/C: 101 % of control

## COc1ccc(N=Nc2c(C)nn(C(=S)S)c2C)cc1
[14]
  T/C: 113 % of control
[15]
  T/C: 101 % of control
[16]
  T/C: 106 % of control

## COc1cc(/C=C/Cc2cc3c(cc2O)OCO3)cc(OC)c1OC
[1]
  T/C: 95 % of control
[2]
  T/C: 90 % of control
[3]
  T/C: 89 % of control

## c1ccc(CN2C3Oc4ccccc4C2Oc2ccccc23)cc1
dose: 12.5 mg/kg/injection, schedule: Q01DX009 (ip), vehicle: saline with Tween-80
  T/C: 100 % of control
[4]
  T/C: 100 % of control
[5]
  T/C: 91 % of control

## CCCN(CCC)/N=C/c1c2c(O)c3c(O)c(C)c4c(c3c1O)C(=O)C(C)(O/C=C/C(OC)C(C)C(OC(C)=O)C(C)C(O)C(C)C(O)C(C)/C=C/C=C(C)C(=O)N2)O4 (stereo not drawn)
[12]
  T/C: 110 % of control
[13]
  T/C: 122 % of control

## CC(=NC(C)C)Nc1ccc(Cl)cc1C
dose: 50.0 mg/kg/injection, schedule: Q01DX009 (ip), vehicle: saline + Tween-80 + alcohol
  T/C: 101 % of control
dose: 100.0 mg/kg/injection, schedule: Q01DX009 (ip), vehicle: saline + Tween-80 + alcohol
  T/C: 95 % of control

## CN1CCC(C(=O)NNc2ccccc2)CC1
dose: 50.0 mg/kg/injection, schedule: Q01DX005 (ip), vehicle: saline
  T/C: 100 % of control
dose: 100.0 mg/kg/injection, schedule: Q01DX005 (ip), vehicle: saline
  T/C: 102 % of control
dose: 200.0 mg/kg/injection, schedule: Q01DX005 (ip), vehicle: saline
  T/C: 102 % of control

## O=c1[nH]cnc2c1CCc1ccccc1-2
dose: 100.0 mg/kg/injection, schedule: Q04DX002 (ip), vehicle: saline with Tween-80
  T/C: 93 % of control
dose: 200.0 mg/kg/injection, schedule: Q04DX002 (ip), vehicle: saline with Tween-80
  T/C: 100 % of control
dose: 400.0 mg/kg/injection, schedule: Q04DX002 (ip), vehicle: saline with Tween-80
  T/C: 102 % of control

## C[n+]1c(/C=C/c2ccc(N3CCCC3)cc2)sc2ccccc21
dose: 0.79 mg/kg/injection, schedule: Q01DX009 (ip), vehicle: saline
  T/C: 105 % of control
dose: 1.56 mg/kg/injection, schedule: Q01DX009 (ip), vehicle: saline
  T/C: 95 % of control
dose: 3.12 mg/kg/injection, schedule: Q01DX009 (ip), vehicle: saline
  T/C: 106 % of control and 117 % of control
dose: 6.25 mg/kg/injection, schedule: Q01DX009 (ip), vehicle: saline
  T/C: 108 % of control

## COc1ccc2nc3cc(Cl)ccc3c(Nc3ccccc3NC(C)=O)c2n1
dose: 12.5 mg/kg/injection, schedule: Q01DX009 (ip), vehicle: water
  T/C: 116 % of control
dose: 25.0 mg/kg/injection, schedule: Q01DX009 (ip), vehicle: water
  T/C: 116 % of control
dose: 50.0 mg/kg/injection, schedule: Q01DX009 (ip), vehicle: water
  T/C: 119 % of control
dose: 100.0 mg/kg/injection, schedule: Q01DX009 (ip), vehicle: water
  T/C: 114 % of control
dose: 200.0 mg/kg/injection, schedule: Q01DX009 (ip), vehicle: water
  T/C: 115 % of control

## CCCC(NC(=O)OCc1ccccc1)C(=O)NC(CC(C)C)C(N)=O (stereo not drawn) (Cbz-[Nva]-Leu-NH2; configuration not given here)
[7]
  T/C: 112 % of control
[8]
  T/C: 100 % of control
[9]
  T/C: 100 % of control
